Experimental data from patent publication US20240190865A1, “T-TYPE CALCIUM CHANNEL ANTAGONISTS AND USES THEREOF” (THE BOARD OF TRUSTEES OF THE LELAND STANFORD JUNIOR …, priority 2021, published 2024).
Entries after “also recorded” stand apart in the source; their conditions may differ. Where two headings read alike, the source gives them in different places. Blank lines part the entries; values can stand above or below the compound they belong to.

Key:
[1] = tested on: Miro1; test: Miro1 fibroblast assay (CCCP challenge, Miro1 Western blot); format: cell-based; details: skin fibroblasts from human Parkinson's disease patients, CCCP 40 μM 24 hr; read-out: Fibroblast IC50 (nM), Miro1 reduction
Protocol: Fibroblast Challenge and Miro1 Western blot: Skin fibroblasts were obtained from human Parkinson's disease (PD) patients. CCCP was applied at 40 μM for 24 hr to fibroblasts before cells were lysed in RIPA lysis buffer with 0.25 mM PMSF and protease inhibitors. Lysates were cleared by centrifugation at 17,000×g for 10 min at 4° C., and supernatants were run in an SDS-PAGE for Western blotting. After electrophoresis, nitrocellulose membranes (Bio-Rad) were used in wet transfer. Transferred membranes were first blocked for 1 hr in phosphate-buffered saline (PBS) containing 5% fat-free milk and 0.1% tween-20, and then incubated with the following primary antibodies: rabbit anti-Miro1 (HPA010687, Sigma-Aldrich) at 1:1,000, mouse anti-ATP50 (AB14730, Abcam) at 1:5,000, mouse anti-β-Actin (A00702, Genscript) at 1:3,000, or rabbit anti-VDAC (4661S, Cell Signaling Technology) at 1:1,000 at 4° C. overnight in blocking buffer. West Dura ECL reagents (GE Healthcare) were used for ECL immunoblotting with HRP-conjugated goat anti-mouse or anti-rabbit, anti-mouse IgG (Jackson ImmunoResearch Laboratories) at 1:5-10,000. Membranes were exposed to UltraCruz autoradiography films (Santa Cruz Biotechnology) and developed on a Konica Minolta SRX-101A developer.
T-type calcium channel antagonists that could reduce Miro1 level were tested in the above PD fibroblast assay.

[2] = tested on: Miro1; test: Miro1 reduction after compound administration, Western blot; format: cell-based; details: Western blot method
[3] = tested on: mutant SNCA flies; test: Parkinson's disease fly model, locomotion (negative geotaxis Performance Index); format: in vivo; details: PD fly model (mutant SNCA flies), 2.5 μM in feed for 10 days
Protocol: The Parkinson's disease (PD) fly model was used as described in Hsieh C-H, Li L, Vanhauwaert R, Nguyen KT, Davis M D, Bu G, et al. Miro1 Marks Parkinson's Disease Subset and Miro1 Reducer Rescues Neuron Loss in Parkinson's Models. Cell Metab. 2019; 1131-1140. The average Performance Index (PI) (negative geotaxis) was evaluated. Briefly, adult flies were gently tapped to the base of a modified 25 ml climbing tube and their climbing progress was recorded after 45 sec. Three populations of flies were assessed, and for each population, flies were examined 3 times per experiment. The recorded values were used to calculate the average PI.
Feeding PD Flies with a Calcium Channel Blocker Rescues Locomotion Deficits. Benidipine was tested in a PD fly model (mutant SNCA flies) and the flies examined for their locomotion.

[4] = In vivo pharmacokinetics in dogs; details: dog, plasma; male beagle dogs, 1 mg/kg IV and 3 mg/kg PO; read-out: oral bioavailability (F)
Protocol: In vivo experiments were performed in dogs to evaluate certain calcium channel antagonists of the present disclosure. For instance, Example 15 was evaluated in adult male non-naïve beagle dogs (N=6), 8-10 kg, at 1 mg/kg IV and 3 mg/kg PO. The dogs were given free access to food and water for the IV group, were fasted overnight and fed 4 hr post-dosing for the PO group. The IV group was administered Example 15 via cephalic vein injection. The PO group was administered 3 mg/kg Example 15 by oral gavage. Dosing formulations were prepared at 1 mg/mL in 5% dimethylacetamide, 5% Solutol HS 15, 90% saline prior to use.
Blood collection: The animals were restrained manually, and approximately 0.5 mL blood/time point was collected via cephalic vein into pre-cold EDTA-K2 tubes. Blood samples were chilled on wet ice until centrifuged at 4° C. to obtain plasma within 15 minutes of sample collection.

[5] = molecular target: Cav3.2 (Homo sapiens (Human), UniProt O95180); test: In vitro patch clamp assay (SyncroPatch 384PE); format: cell-based; details: HEK293 cells
Chain of Cav3.2 (O95180 whole entry): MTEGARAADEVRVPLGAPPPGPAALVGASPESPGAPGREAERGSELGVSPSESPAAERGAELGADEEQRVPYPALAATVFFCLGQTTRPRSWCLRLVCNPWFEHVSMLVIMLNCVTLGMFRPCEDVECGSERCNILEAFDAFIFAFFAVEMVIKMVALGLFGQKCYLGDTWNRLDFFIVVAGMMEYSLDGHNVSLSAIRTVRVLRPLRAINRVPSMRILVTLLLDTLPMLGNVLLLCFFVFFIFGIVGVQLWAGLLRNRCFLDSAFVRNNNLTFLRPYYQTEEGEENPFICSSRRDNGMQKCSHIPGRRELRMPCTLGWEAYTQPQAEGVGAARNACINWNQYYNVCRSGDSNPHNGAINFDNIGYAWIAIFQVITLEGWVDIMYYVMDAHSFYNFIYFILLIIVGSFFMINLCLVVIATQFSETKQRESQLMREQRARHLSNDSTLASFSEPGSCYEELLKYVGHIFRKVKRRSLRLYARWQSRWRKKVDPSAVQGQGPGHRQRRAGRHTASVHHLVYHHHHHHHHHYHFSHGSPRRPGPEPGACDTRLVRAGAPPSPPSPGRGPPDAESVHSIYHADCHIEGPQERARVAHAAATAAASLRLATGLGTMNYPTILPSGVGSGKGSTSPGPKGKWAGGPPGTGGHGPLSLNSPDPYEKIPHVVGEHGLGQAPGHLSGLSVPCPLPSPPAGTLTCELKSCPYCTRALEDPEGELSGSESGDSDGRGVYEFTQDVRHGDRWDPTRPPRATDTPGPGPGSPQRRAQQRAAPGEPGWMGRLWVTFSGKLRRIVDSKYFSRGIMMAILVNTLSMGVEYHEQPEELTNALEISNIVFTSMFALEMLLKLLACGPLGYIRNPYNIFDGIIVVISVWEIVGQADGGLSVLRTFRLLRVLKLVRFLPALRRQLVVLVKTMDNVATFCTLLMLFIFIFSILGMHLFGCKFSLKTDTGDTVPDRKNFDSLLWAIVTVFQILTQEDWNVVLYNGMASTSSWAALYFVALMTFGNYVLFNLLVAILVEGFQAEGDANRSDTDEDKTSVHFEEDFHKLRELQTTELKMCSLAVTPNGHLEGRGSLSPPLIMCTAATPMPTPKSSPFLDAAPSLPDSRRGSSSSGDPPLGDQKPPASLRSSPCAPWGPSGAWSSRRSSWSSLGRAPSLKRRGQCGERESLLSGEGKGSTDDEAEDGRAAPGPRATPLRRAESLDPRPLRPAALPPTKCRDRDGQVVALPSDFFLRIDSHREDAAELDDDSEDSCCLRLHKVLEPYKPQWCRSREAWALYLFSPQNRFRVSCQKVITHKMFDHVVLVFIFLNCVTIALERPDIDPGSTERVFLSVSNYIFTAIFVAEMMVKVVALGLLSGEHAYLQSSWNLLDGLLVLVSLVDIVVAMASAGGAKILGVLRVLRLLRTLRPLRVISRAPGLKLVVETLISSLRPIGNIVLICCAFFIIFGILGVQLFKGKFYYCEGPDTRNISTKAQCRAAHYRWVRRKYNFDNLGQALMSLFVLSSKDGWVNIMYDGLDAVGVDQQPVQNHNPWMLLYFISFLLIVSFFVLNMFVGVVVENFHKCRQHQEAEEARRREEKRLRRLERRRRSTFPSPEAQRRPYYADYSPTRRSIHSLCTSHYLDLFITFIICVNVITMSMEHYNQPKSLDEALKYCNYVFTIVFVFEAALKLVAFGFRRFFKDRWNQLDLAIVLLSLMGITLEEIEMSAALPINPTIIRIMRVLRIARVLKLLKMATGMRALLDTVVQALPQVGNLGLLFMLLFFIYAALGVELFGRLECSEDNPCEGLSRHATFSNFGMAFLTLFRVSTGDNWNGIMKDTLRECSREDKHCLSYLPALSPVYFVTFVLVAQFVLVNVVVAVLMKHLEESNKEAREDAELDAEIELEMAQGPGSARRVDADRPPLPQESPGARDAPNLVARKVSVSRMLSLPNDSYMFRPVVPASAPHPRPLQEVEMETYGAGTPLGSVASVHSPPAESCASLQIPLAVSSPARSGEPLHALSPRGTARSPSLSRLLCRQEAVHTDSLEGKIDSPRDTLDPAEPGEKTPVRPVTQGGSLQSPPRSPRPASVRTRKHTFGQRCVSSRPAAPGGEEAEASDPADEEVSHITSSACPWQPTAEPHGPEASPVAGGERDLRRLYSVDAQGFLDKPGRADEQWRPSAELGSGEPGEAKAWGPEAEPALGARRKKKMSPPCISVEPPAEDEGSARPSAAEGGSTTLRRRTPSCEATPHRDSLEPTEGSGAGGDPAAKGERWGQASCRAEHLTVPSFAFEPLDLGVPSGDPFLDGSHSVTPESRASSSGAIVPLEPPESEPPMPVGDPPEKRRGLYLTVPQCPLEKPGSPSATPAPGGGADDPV
Protocol: Patch clamp assays were performed at Charles River. HEK293 cells were cultured in Dulbecco's Modified Eagle Medium/Nutrient Mixture F-12 (D-MEM/F-12) supplemented with 10% fetal bovine serum, 100 U/mL penicillin G sodium, 100 μg/mL streptomycin sulfate and 500 μg/mL G418. Before testing, cells in culture dishes were washed twice with Hank's Balanced Salt Solution, treated with Accutase™ and re-suspended in the culture media (˜20×10^6 cells in 20 mL). Cells in suspension were allowed to recover for 10 minutes in tissue culture incubator set at 37° C. in a humidified 95% air: 5% CO2 atmosphere. Immediately before use in the SyncroPatch 384PE system (SP384PE), the cells were washed twice in extracellular buffer (HB-PS) to remove the culture medium and re-suspended in 20 mL of HB-PS. Extracellular buffer was loaded into the wells of Nanion 384-well Patch Clamp (NPC-384, 4×M) chip (60 μL per well). Then, cell suspension was pipetted into the wells (20 μL per well) of the chip. After establishment of the whole-cell configuration, membrane currents were recorded using patch clamp amplifier in the SP384PE system.

[6] = In vivo pharmacokinetics in rats; design: species or system Sprague-Dawley rats
Protocol: Fasted male Sprague-Dawley rats between 6 to 8 weeks of age were dosed with calcium channel antagonists of the present disclosure to evaluate in vivo pharmacokinetics. Each compound was formulated in 5% DMAC+5% Solutol HS15+90% Saline to yield a solution for dosing. The rats were dosed intravenously (IV) at 1 mg/kg (1 mL/kg) via foot dorsal vein (N=3) or orally (PO) at 10 mg/kg (10 mL/kg) via oral gavage (N=3).
Blood collection: The animals were restrained manually, and approximately 200 μL blood/time point was collected into pre-cooled EDTA-K2 tubes via jugular vein and put on wet ice. The blood sample was centrifuged at 4° C. (2000 g, 5 min) to obtain plasma within 15 min after sample collection. The plasma samples were stored at approximately −70° C. until analysis.

[7] = Brain penetration in mice; format: in vivo; details: male C57BL/6 mice; for concentration at 4 h: mouse, brain, 4 hours post-dose
Protocol: Male C57BL/6 mice at 6-8 weeks were dosed once with Example 15 in two experiments (N=3 per timepoint) at 1 mg/kg IV or 10 mg/kg PO, and then compound concentration was measured at various times up to 24 hours. Dosing solutions were prepared of Example 15 in 0.2 mg/mL (IV) or 1 mg/mL (PO) in 5% dimethylacetamide, 5% Solutol HS 15, 90% saline solution prior to use. Compound was administered either IV by tail vein injection or PO by oral gavage.
Blood collection: The animal was restrained manually at the designated time points, approximately 110 μL of blood sample was collected via facial vein into K2EDTA tubes. Blood sample was put on ice and centrifuged at 2000 g for 5 mins to obtain plasma sample within 15 minutes.
Brain collection: After the blood collection, the animals were euthanized via CO2. The whole brain was collected, rinsed with cold saline, dried on filtrate paper, weighed, and snap frozen by placing into dry-ice.
The brain penetrance of Example 15 was calculated using mouse plasma/brain PK and relative mouse plasma and brain homogenate binding. […] For instance, at 4 hours post-dose: Example 15 brain concentration>100 ng/mL (IV); Example 15 brain concentration>1000 ng/mL (PO).

[8] = tested on: Miro1; test: Rescue of Miro1 deficit in P301L tau donor fibroblasts (FCCP challenge, Miro1 immunocytochemistry); format: cell-based, human
Protocol: The compound of Example 15 rescued Miro1 deficit in P301L tau donor at risk for developing frontotemporal dementia (FTD). Method: A fibroblast was obtained from a non-symptomatic at risk carrier of the pathogenic P301L mutation in the MAPT/Tau gene, a highly penetrant risk factor for frontotemporal dementia (FTD). NINDS line ID: ND32956, collected from a person. Fibroblasts were seeded into 96-well assay plates. After 24 hours, cells were pre-treated with either vehicle (DMSO) or a dose-response of Example 15 compound. After 6 hrs of pre-treatment, cells were challenged with the mitochondrial stressor FCCP for 14 hours. After 14 hours of challenge, cells were fixed in paraformaldehyde and a standard immunocytochemistry protocol was followed to stain for Miro1 using a specific antibody. Images were acquired on the Yokogawa CQ1 confocal high-content imaging platform and the signal from the Miro1 antibody was quantified. Average Miro1 signal intensity was quantified from ˜400 cells/condition.
Similar to the method illustrated in Example 64, a Miro1 ratio could be calculated based on the Miro1 level after treatment of fibroblasts with FCCP compared with a control Miro1 level measured from fibroblasts that were not treated.

[9] = rat, compared to Example 16 of U.S. Pat. No. 7,875,636
[10] = rat, plasma, male Sprague-Dawley rats, 1 mg/kg IV, read-out: Mean (ng/mL) after 1 mg/kg IV dose
[11] = rat, plasma, male Sprague-Dawley rats, 10 mg/kg PO, read-out: Mean (ng/mL) after 10 mg/kg PO dose

Structure (SMILES): O=C(c1cc(S(=O)(=O)Nc2ccccc2F)c(F)cc1Cl)N1CCN2CCC[C@@H]2C1 [ABT-639, 5-[(8aR)-3,4,6,7,8,8a-hexahydro-1H-pyrrolo[1,2-a]pyrazine-2-carbonyl]-4-chloro-2-fluoro-N-(2-fluorophenyl)benzenesulfonamide]
IC50 [1]: 5410 nM | Miro1 Lowering [2]: YES

Structure (SMILES): N#Cc1ccc(Cn2ccc(NC(=O)Cc3ccc(C4(C(F)(F)F)CC4)cc3)n2)nc1 [ACT-709478, N-(1-((5-cyanopyridin-2-yl)methyl)-1H-pyrazol-3-yl)-2-(4-(1-(trifluoromethyl)cyclopropyl)phenyl)acetamide]
IC50 [1]: 3930 nM | Miro1 Lowering [2]: YES

Structure (SMILES): COC(=O)C1=C(C)NC(C)=C(C(=O)OC2CCCN(Cc3ccccc3)C2)C1c1cccc([N+](=O)[O-])c1 (stereo not shown) [Benidipine, 1,4-dihydro-2,6-dimethyl-4-(3-nitrophenyl)-3,5-pyridine-dicarboxylic acid methyl 1-(phenylmethyl)-3-piperidinyl ester]
locomotor decline / locomotion deficits [3]: significantly improved locomotor decline | locomotor decline / locomotion deficits ([3]; listed as benidipine): rescuing locomotor deficits | IC50 [1]: 2560 nM | Miro1 Lowering [2]: YES

bioavailability [4]: > 50% | IC50 [5]: 0.163 µM | Mean (ng/mL) after 1 mg/kg IV dose ([6]; male Sprague-Dawley rats, 1 mg/kg IV, 24 hr, BQL = below quantitation level): BQL | AUC [6, 9]: higher | Cmax [6, 9]: higher | half-life (t1/2) [6, 9]: about two-fold higher | concentration at 0.25 h [6, 10]: 890 ng/mL | concentration at 0.5 h [6, 10]: 764 ng/mL | concentration at 1 h [6, 10]: 621 ng/mL | concentration at 2 h [6, 10]: 423 ng/mL | concentration at 4 h [6, 10]: 193 ng/mL | concentration at 8 h [6, 10]: 26.3 ng/mL | concentration at 12 h [6, 10]: 4.42 ng/mL | concentration at 0.25 h [6, 11]: 4110 ng/mL | concentration at 0.5 h [6, 11]: 4510 ng/mL | concentration at 1 h [6, 11]: 4710 ng/mL | concentration at 2 h [6, 11]: 5440 ng/mL | concentration at 4 h [6, 11]: 4070 ng/mL | concentration at 8 h [6, 11]: 1240 ng/mL | concentration at 12 h [6, 11]: 329 ng/mL | concentration at 24 h ([6]; rat, plasma, male Sprague-Dawley rats, 10 mg/kg PO, 24 hr, read-out: Mean (ng/mL) after 10 mg/kg PO dose): 2.49 ng/mL | brain penetration ([7]; IV and PO experiments): measurable brain penetration | concentration at 4 h ([7]; 1 mg/kg IV): > 100 ng/mL | concentration at 4 h ([7]; 10 mg/kg PO): > 1000 ng/mL
Structure (SMILES): C[C@@H](NC(=O)Cc1ccc(C(F)(F)F)cc1)c1cc2cnn(CC(F)(F)F)c2cn1 [Example 15, (R)—N-(1-(1-(2,2,2-trifluoroethyl)-1H-pyrazolo[3,4-c]pyridin-5-yl)ethyl)-2-(4-(trifluoromethyl)phenyl)acetamide]
rescue of Miro1 deficit ([8]; P301L tau donor fibroblasts in response to FCCP): completely rescued Miro1 reduction deficit; also recorded: dose-dependent rescue of Miro1 deficit | IC50 ([8]; P301L tau donor fibroblasts, 6 hrs pre-treatment, FCCP 14 hours, read-out: IC50, rescue of Miro1 reduction deficit): 0.584 µM

Structure (SMILES): CC(C)c1ccc(CC(=O)N[C@H](C)c2ccc(OCC(F)(F)F)cn2)cc1 [MK-8998, (R)-2-(4-Isopropylphenyl)-N-(1-(5-(2,2,2-trifluoroethoxy)pyridin-2-yl)ethyl)acetamide]
IC50 [1]: 693 nM | Miro1 Lowering [2]: YES

Structure (SMILES): NS(=O)(=O)Cc1noc2ccccc12 [Zonisamide, 1,2-benzisoxazole-3-methanesulfonamide]
Miro1 Lowering [2]: YES
